The source made the active and inactive calls.
Key:
Cytochrome P450 3A4 = Cytochrome P450 3A4 (Homo sapiens, UniProt P08684);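 note: CYP3A4 tested as one member of a cytochrome P450 panel screen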
Fatty acid synthase [1] = molecular target: T1, Fatty acid synthase (Homo sapiens, UniProt P49327); assay: FAS thioesterase domain inhibitors, dose response, biochemical, endpoint fluorescence intensity, uHTS hits (AID 624327); type: functional;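 note: fluorescence from hydrolysis of an O-methyl fluorescein acyl ester substrate by the enzyme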
T1 sequence (P49327 whole entry, the tested form may be a part): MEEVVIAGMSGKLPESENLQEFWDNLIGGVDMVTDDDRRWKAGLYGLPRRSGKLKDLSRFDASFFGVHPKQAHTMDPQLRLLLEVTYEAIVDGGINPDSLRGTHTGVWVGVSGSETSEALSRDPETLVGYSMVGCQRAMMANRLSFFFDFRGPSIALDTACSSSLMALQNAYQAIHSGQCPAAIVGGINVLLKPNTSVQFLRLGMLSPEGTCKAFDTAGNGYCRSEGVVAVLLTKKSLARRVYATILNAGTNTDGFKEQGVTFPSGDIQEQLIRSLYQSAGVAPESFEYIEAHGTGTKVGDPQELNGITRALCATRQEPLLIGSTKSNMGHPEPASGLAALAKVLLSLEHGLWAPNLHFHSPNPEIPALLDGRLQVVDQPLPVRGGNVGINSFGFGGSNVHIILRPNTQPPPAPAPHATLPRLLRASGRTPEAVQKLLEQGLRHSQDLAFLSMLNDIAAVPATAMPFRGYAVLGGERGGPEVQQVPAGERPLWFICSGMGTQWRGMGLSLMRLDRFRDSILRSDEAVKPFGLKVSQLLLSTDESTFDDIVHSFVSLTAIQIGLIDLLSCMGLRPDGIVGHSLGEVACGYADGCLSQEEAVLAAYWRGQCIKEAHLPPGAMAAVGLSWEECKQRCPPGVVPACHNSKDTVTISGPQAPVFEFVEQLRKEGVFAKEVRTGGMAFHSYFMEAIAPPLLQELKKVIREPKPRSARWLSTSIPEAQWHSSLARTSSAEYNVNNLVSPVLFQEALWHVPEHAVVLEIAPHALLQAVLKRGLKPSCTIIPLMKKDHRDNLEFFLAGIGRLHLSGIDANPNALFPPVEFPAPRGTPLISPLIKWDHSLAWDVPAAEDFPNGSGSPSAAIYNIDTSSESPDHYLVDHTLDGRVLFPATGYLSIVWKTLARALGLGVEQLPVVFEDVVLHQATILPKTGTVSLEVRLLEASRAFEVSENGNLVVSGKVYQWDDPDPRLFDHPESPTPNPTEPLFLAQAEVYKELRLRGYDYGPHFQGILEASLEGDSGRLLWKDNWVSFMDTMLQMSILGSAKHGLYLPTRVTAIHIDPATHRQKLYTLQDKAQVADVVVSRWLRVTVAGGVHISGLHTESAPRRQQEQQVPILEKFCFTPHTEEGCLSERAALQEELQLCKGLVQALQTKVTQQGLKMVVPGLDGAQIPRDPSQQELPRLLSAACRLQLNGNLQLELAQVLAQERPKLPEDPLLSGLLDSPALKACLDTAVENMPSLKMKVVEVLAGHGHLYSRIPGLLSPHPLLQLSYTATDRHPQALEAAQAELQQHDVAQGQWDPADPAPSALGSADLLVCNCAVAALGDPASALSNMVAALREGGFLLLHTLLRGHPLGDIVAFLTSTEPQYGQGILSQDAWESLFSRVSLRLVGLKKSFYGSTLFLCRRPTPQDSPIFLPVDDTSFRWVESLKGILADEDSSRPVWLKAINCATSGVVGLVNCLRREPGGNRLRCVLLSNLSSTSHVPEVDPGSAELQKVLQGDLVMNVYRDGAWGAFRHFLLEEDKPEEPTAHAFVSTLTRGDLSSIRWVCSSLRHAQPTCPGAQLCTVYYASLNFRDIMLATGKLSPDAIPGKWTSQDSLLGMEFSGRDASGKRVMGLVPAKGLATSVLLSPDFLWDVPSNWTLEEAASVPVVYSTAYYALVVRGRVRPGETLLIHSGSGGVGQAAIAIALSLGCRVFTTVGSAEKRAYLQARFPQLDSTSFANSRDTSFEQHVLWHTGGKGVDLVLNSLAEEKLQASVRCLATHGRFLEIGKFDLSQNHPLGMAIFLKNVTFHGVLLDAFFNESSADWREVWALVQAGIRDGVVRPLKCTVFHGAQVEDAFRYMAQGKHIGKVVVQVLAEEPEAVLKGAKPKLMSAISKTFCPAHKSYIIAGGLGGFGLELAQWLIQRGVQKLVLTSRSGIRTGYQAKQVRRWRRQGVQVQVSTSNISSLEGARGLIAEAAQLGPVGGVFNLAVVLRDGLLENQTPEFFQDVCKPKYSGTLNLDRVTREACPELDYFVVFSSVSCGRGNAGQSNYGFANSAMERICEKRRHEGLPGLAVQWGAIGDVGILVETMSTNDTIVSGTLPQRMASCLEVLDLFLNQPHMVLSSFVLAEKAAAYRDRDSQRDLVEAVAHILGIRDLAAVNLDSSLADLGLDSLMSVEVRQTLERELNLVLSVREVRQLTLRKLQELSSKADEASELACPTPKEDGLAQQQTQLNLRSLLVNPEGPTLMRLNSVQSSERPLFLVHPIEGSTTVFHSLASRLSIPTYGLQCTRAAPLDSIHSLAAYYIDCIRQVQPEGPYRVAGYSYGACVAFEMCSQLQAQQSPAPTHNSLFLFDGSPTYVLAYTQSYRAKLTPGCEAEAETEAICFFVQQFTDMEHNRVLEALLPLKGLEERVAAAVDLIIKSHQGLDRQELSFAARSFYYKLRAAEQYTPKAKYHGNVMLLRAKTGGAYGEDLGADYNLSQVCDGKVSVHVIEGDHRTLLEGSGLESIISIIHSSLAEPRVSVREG

Fatty acid synthase [2] = molecular target: T1, Fatty acid synthase; assay: FAS thioesterase domain inhibitors, dose response, biochemical, kinetic fluorescence intensity (AID 624326); type: functional;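 note: rate of fluorescence rise from hydrolysis of a fluorogenic O-methyl fluorescein ester substrate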
[3] = HEp-2 cell cytotoxicity, dose response, cytotoxicity control for RSV inhibitor project, HTS (AID 2410); type: functional; conditions: human respiratory syncytial virus
[4] = Luminescence Cell-Based Dose Response HTS to Identify Activators of Luciferase Translation or Activity in H4 […] Cells. [Related pubchem assays: 1829 (Project Summary), 1814 (Primary HTS)]; type: functional
H4 = assay: Luminescence Cell-Based Dose Response HTS to Identify Activators of 5'UTR Stem-Loop Driven Prion Protein mRNA Translation in H4 Neuroglioblastoma Cells. [Related pubchem assays: 1829 (Project Summary), 1814 (Primary HTS)]; type: functional; conditions: Homo sapiens
Cytochrome P450 2D6 = Cytochrome P450 2D6 (Homo sapiens, UniProt P10635);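 note: CYP2D6 member of a cytochrome P450 panel assay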
Chain of Cytochrome P450 2D6 (P10635 whole entry): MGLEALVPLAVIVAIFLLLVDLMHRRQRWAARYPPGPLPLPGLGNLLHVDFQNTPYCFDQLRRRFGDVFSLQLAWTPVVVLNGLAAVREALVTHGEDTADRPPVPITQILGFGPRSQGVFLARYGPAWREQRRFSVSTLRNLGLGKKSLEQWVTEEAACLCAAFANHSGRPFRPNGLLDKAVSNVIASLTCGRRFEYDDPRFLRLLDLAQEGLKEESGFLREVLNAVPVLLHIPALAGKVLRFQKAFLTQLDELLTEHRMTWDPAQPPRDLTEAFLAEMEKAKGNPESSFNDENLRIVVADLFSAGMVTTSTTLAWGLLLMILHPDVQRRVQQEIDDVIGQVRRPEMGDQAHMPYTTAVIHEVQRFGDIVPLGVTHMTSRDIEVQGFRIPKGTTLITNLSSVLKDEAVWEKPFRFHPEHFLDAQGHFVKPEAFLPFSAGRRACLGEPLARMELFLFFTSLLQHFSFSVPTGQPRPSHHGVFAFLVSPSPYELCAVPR

Cytochrome P450 1A2 = molecular target: T2, Cytochrome P450 1A2 (Homo sapiens, UniProt P05177);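 note: PubChem cytochrome P450 panel assay, CYP1A2 panel member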
T2 sequence (P05177 whole entry): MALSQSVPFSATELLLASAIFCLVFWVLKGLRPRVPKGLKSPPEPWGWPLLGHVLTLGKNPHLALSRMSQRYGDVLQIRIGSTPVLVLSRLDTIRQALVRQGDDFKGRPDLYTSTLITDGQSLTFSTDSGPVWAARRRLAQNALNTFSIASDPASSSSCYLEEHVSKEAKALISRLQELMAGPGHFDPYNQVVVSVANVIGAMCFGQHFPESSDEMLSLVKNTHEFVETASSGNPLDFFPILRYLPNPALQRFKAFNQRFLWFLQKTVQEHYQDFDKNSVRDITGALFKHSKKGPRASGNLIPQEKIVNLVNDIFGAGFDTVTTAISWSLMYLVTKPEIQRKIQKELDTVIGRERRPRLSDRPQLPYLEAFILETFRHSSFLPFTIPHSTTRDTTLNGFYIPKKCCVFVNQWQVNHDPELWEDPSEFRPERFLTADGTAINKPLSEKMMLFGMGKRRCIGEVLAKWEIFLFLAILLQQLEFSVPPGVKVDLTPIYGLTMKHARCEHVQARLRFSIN

Cytochrome P450 2C19 = Cytochrome P450 2C19 (Homo sapiens, UniProt P33261); assay: Cytochrome panel assay with activity outcomes. Panel member name: p450-cyp2c19 Compounds with AC50 equal or less than 10 uM are considered active; type: functional; conditions: read-out: AC50
Chain of Cytochrome P450 2C19 (P33261 whole entry): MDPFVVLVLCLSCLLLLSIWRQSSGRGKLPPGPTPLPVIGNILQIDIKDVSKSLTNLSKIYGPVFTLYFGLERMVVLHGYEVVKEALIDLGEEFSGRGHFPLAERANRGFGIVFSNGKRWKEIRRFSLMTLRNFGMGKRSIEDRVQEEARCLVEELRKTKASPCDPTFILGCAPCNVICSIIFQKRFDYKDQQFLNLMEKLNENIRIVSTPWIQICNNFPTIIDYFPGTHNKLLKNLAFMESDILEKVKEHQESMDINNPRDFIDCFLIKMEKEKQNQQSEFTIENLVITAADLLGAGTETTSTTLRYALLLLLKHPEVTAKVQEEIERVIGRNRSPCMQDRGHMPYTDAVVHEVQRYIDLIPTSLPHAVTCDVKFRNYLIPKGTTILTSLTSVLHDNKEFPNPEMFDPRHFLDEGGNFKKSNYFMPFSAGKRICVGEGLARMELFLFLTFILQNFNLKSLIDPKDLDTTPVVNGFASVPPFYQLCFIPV

[5] = NIH-3T3 fibroblast cytotoxicity, dose response, cytotoxicity control, cell-based, fluorescence, Alamar Blue, secondary assay (AID 2327); type: functional;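 note: NIH-3T3 mouse fibroblasts cultured with fluconazole at 8 µg/mL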
[6] = C. albicans growth with fluconazole, confirmation, fluorescence, retest (AID 2467); type: functional, cell-based

Chain of Cytochrome P450 3A4 (P08684 whole entry, the tested form may be a part): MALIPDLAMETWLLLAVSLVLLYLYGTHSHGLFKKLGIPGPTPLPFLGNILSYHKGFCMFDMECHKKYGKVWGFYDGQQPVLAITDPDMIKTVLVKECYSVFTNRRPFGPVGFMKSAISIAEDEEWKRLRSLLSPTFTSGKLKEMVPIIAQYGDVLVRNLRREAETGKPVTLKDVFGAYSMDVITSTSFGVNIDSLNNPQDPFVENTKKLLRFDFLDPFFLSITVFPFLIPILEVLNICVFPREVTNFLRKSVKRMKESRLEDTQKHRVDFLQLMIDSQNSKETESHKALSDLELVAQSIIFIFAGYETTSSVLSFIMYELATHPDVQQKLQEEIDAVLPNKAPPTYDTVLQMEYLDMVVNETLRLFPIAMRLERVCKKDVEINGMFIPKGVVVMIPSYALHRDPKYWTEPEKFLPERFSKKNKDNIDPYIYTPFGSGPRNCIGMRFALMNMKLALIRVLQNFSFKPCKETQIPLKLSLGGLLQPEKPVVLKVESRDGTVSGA

Question: With `O=c1c(-c2ccccc2)nc2cnc(N3CCOCC3)nc2n1C[C@H]1CCCO1` as the compound, how does the AC50 (Cytochrome P450 3A4) read?
Answer: 39.8 µM (inconclusive)

Question: Which IC50 (Fatty acid synthase [1]) does the source give for `O=[N+]([O-])c1ccc(Cl)c(S(=O)(=O)Nc2ccc(-c3ccc(N4CCCC4)nn3)cc2)c1` here?
Answer: 8.93 µM (active)

Question: What about the IC50 (Fatty acid synthase [2]) of the same compound?
Answer: 11.3 µM (active)

Question: With `CCCOc1ccc(NC(=O)CC2C(=O)N(CC)C(=S)N2Cc2cccs2)cc1` (stereo unspecified) as the compound, how does the IC50 (Fatty acid synthase [1]) read?
Answer: 12.4 µM (active)

Question: And the IC50 (Fatty acid synthase [2])?
Answer: 10.9 µM (active)

Question: What does the source list for `CC(C)(C)N1C(=O)[C@H]2[C@@H](c3ccc(Br)cc3)N3C(=O)N(c4cccc(F)c4)C(=O)[C@@]3(Cc3ccccc3)[C@H]2C1=O`?
Answer: IC50 (Fatty acid synthase [1]): 19.8 µM (active); IC50 (Fatty acid synthase [2]): 10.8 µM (active)

Question: For `CC1CCc2c(C(=O)Oc3cccc(-n4cnnn4)c3)csc2C1` (stereo unspecified), which IC50 (Fatty acid synthase [1]) is on record?
Answer: 1.71 µM (active)

Question: What about the IC50 (Fatty acid synthase [2]) of the same compound?
Answer: 1.36 µM (active)

Question: Which CC50 [3] does the source give for `C/C(=N\NC(=O)COc1ccc(C)cc1C(C)C)c1ccc(-n2ccnc2)cc1` here?
Answer: 24.3 µM (active)

Question: With `COC(=O)c1cccc(NC(=O)CCCOc2ccccc2)c1` as the compound, how does the AC50 (Cytochrome P450 3A4) read?
Answer: 12.6 µM (inconclusive)

Question: What does the source list for `N#CC1=C2SC=C(c3ccc(Br)cc3)N2CCCC1=O`?
Answer: EC50 [4]: 0.864 µM (active); EC50 (H4): 16.9 µM (active)

Question: What does the source list for `Cc1noc(C)c1NC(=O)Nc1cccc2c1O[C@H](CN(C)C(=O)NC1CCCCC1)[C@@H](C)CN([C@H](C)CO)C2=O`?
Answer: IC50 (Fatty acid synthase [1]): 2.47 µM (active); IC50 (Fatty acid synthase [2]): 4.3 µM (active)

Question: For `CCCCC(=O)N/N=C/c1cc([N+](=O)[O-])ccc1N1CCOCC1`, which IC50 (Fatty acid synthase [1]) is on record?
Answer: 4.56 µM (active)

Question: And the IC50 (Fatty acid synthase [2])?
Answer: 4.13 µM (active)

Question: What does the source list for `O=C(NCCC1=CCCCC1)c1ccc(Cl)c([N+](=O)[O-])c1`?
Answer: IC50 (Fatty acid synthase [1]): 11.7 µM (active); IC50 (Fatty acid synthase [2]): 9.92 µM (active)

Question: Which results are given for `Cc1ccccc1Cn1c(Cc2ccccc2)nc2ccccc21`?
Answer: AC50 (Cytochrome P450 2D6): 31.6 µM (inconclusive); AC50 (Cytochrome P450 3A4): 31.6 µM (inconclusive); AC50 (Cytochrome P450 1A2): 17.8 µM (inconclusive)

Question: Which results are given for `CC(C)CC(C(=O)OCC(=O)Nc1ncc(Cl)cc1Cl)N1C(=O)c2ccccc2C1=O` (stereo unspecified)?
Answer: AC50 (Cytochrome P450 3A4): 31.6 µM (inconclusive); AC50 (Cytochrome P450 1A2): 11.2 µM (inconclusive)

Question: For `COc1ccc(NC(=O)NCc2cccn2C)c(OC)c1`, which AC50 (Cytochrome P450 2D6) is on record?
Answer: 0.501 µM (inconclusive)

Question: And the AC50 (Cytochrome P450 3A4)?
Answer: 22.4 µM (inconclusive)

Question: Which results are given for `O=C(/C=C/c1cccc([N+](=O)[O-])c1)N1CCN(c2ccc(F)cc2)CC1`?
Answer: IC50 (Fatty acid synthase [1]): 2.32 µM (active); IC50 (Fatty acid synthase [2]): 4.93 µM (active)

Question: For `COc1ccc(-c2nc(C#N)c(N3CCC(C(N)=O)CC3)o2)cc1OC`, which AC50 (Cytochrome P450 2C19) is on record?
Answer: 22.4 µM (inconclusive)

Question: What about the AC50 (Cytochrome P450 3A4) of the same compound?
Answer: 39.8 µM (inconclusive)

Question: What about the AC50 (Cytochrome P450 1A2) of the same compound?
Answer: 12.6 µM (inconclusive)

Question: Which AC50 (Cytochrome P450 3A4) does the source give for `CO[C@H]1[C@H](O[C@H]2O[C@@H](C)[C@@H](O[C@@H]3C[C@](C)(O)[C@H](OC(=O)CC(C)C)[C@H](C)O3)[C@@H](N(C)C)[C@@H]2O)[C@@H](CC=O)C[C@@H](C)[C@@H](O)/C=C\C=C/C[C@@H](C)OC(=O)C[C@H]1OC(C)=O` here?
Answer: 12.6 µM (inconclusive)

Question: For `CCCNC(=O)C12CCC(C)(c3nc4cc(C)c(C)cc4nc31)C2(C)C` (stereo unspecified), which EC50 [5] is on record?
Answer: 113 µM (active)

Question: Which CC50 [3] does the source give for `Nc1ccc(C#Cc2c(-c3ccsc3)oc3ccc(N4CCOCC4)cc23)cc1` here?
Answer: 31.5 µM (active)

Question: Which IC50 (Fatty acid synthase [1]) does the source give for `O=C(CC1C[C@H](C(=O)N2CCOCC2)[C@@]2(CCC3CCCC3)c3[nH]c4ccccc4c3CCN2C1=O)NCc1cccc(C(F)(F)F)c1` (stereo partly specified) here?
Answer: 4.98 µM (active)

Question: What about the IC50 (Fatty acid synthase [2]) of the same compound?
Answer: 8.04 µM (active)

Question: What does the source list for `COc1cccc2c1Oc1ncccc1N(C(=O)CCC(=O)NCc1ccccc1F)C2`?
Answer: EC50 [5]: 19.4 µM (inconclusive); EC50 [6]: > 38 µM (not active)

Question: Which AC50 (Cytochrome P450 3A4) does the source give for `COCC(=O)N1CCC2(CCCN(c3ccccc3)C2)CC1` here?
Answer: 7.94 µM (inconclusive)

Question: Which results are given for `C[C@H](CN(C)C)C(C#N)(c1ccccc1)c1ccccc1`?
Answer: AC50 (Cytochrome P450 2D6): 3.16 µM (inconclusive); AC50 (Cytochrome P450 3A4): 3.98 µM (inconclusive)

Reference: ChEMBL document CHEMBL1201862, “PubChem BioAssay data set” (2004)
